Reference: US20100278983A1, “COMPOSITION OF MONASCUS FERMENTED PRODUCT WITH A FUNCTION THAT REDUCES BODY FATNESS FORMATION AND THE METHOD FOR MANUFACTURING THE SAME” (SUNWAY BIOTECH CO., LTD., priority 2009, published 2010)

Key:
[1] = Body weight of rats fed with high-fat diet and Monascus fermented product; assay type: in vivo, male Wister rats; conditions: after 6 weeks of feeding, dosage not stated
Text: In order to estimate the effects of Monascus fermented product on the decrease in body fat mass development and body weight-lowering, the present invention carried out in vitro cellular experiments and in vivo experiments. 3T3-L1 preadipocyte is used as the experimental material in the in vitro cellular experiments to probe into the effects of Monascus fermented product on proliferation and differentiation in preadipocyte. Male Wister rates are used as the experimental animals in the in vivo experiments and fed with high-fat diet and Monascus fermented products at the same time, then determine the effects of the decrease in body fat mass development by many evaluation indicators after […] of breeding.
Rats are randomly divided into to 9 groups, each include 8 rats, on the principles that the initial average weights of rats are unanimous. Rats are fed with high-fat diet and Monascus fermented product at the same time in experiments and then sacrificed for every analyses after 6 weeks of feeding. […]

[2] = tested on: 3T3-L1 preadipocyte; experiment: Proliferation rate of 3T3-L1 preadipocyte; assay type: cell-based; conditions: for decrease of proliferation rate of 3T3-L1 preadipocyte: 24 hours
Text: (§1) 3T3-L1 preadipocyte is used as the experimental material in the in vitro cellular experiments to probe into the effects of Monascus fermented product on proliferation and differentiation in preadipocyte.

[3] = tested on: 3T3-L1 preadipocyte; experiment: Differentiation rate of 3T3-L1 preadipocyte (content of triglyceride, TG); assay type: cell-based; conditions: Mus musculus; for inhibition at 125 µg/mL: 0.125 mg/mL
Method: as §1
In this research, 50, 100 and 200 μg/mL of water extracts of red mold rice and red mold dioscorea are added to 3T3-L1 preadipocyte respectively during differentiation induction and then the cells are collected to be analyzed the content of triglyceride after 8 days of differentiation. TG synthesis is an indicator for the differentiation late phase of the fat cells, thus the TG content in cells are usually used to determine the differentiation rate.

CC[C@H](C)C(=O)O[C@H]1C[C@@H](C)C=C2C=C[C@H](C)[C@H](CC[C@@H]3C[C@@H](O)CC(=O)O3)[C@H]21 [Monacolin K]
Final body weight [1]: 472.4 g
Increment of body weight [1]: 141.1 g
decrease of proliferation rate of 3T3-L1 preadipocyte ([2]; 1.25 μg/mL): 13.0%
decrease of proliferation rate of 3T3-L1 preadipocyte ([2]; 2.5 μg/mL): 18.2%
decrease of proliferation rate of 3T3-L1 preadipocyte ([2]; 5 μg/mL): 23.9%
decrease of proliferation rate of 3T3-L1 preadipocyte ([2]; 10 μg/mL): 28.6%

C/C=C/C1=CC2=C(CO1)C(=O)[C@]1(C)OC(=O)[C@H](C(=O)CCCCCCC)[C@H]1C2 [ankaflavin]
inhibition at 125 µg/mL [3]: 41.2%
inhibition at 250 µg/mL ([3]; 0.25 mg/mL): 29.9%

C/C=C/C1=CC2=C(CO1)C(=O)[C@]1(C)OC(=O)[C@H](C(=O)CCCCC)[C@H]1C2 [monascin]
inhibition at 1000 µg/mL ([2]; Mus musculus, 3T3-L1, 1 mg/mL, 72 hours): 8%
inhibition at 125 µg/mL [3]: 31.2%
